We go through 1 molecule from article PMC7071032, “In Vitro Inhibition of Hsp90 Protein by Benzothiazoloquinazolinequinones Is Enhanced in The Presence of Ascorbate. A Preliminary In Vivo Antiproliferative Study” (Molecules, 2020).

Assay [1] deals with non-tumor fibroblasts AG 1523. The assay can be described thus: MTT reduction assay, non-tumor fibroblasts. The settings on record: Homo sapiens, AG1523, 48 h incubation, read-out: IC50 ± SEM AG 1523. The assay is classed as cell-based. On the procedure:
As positive control, two well-known anticancer drugs, namely TAM and 5-FU, were also tested on these cell lines. […] Regarding 5-FU, it is a broad-spectrum chemotherapeutic drug used to treat a variety of malignancies. Particularly, it has a long history of use against bladder tumors.
Cell culture conditions were the same as reported elsewhere. Briefly, cell lines were kept in DMEM containing 10% fetal calf serum. In addition, 100 U/mL of penicillin and 100 µg/mL streptomycin from Gibco (Grand Island, NY, USA) were further added. Cell cultures were kept at 37 °C under an atmosphere of 95% air/5% CO2 and 100% humidity. Sodium L-ascorbate, menadione (vitamin K3), TAM, and 5-FU were purchased from Sigma (St. Louis, MO, USA).
The cytotoxicity of the quinones was assessed by following the reduction of MTT (3-(4,5-dimethylthiazol-2-yl)-2,5-diphenyltetrazolium bromide) to formazan blue and the capability of cancer cells to proliferate, namely a clonogenic assay.
Cells were seeded into 96-well plates at a density of 10,000 cells/well for 24 h and then incubated for 48 h with or without the quinone derivatives. […] The IC50 values were determined using the GraphPad Prism software (San Diego, CA, USA). Further incubation procedures and optical density reading of colored solutions were performed according to Benites et al..
(Tetrazolium assays rely on reduction of a dye to a coloured formazan, in cell work by metabolically active cells.)

Another assay concerns Hsp90. The assay can be described thus: Immunoblot of Hsp90 protein integrity in T24 cells. Conditions: 5 µM quinone plus 1 mM ascorbate, 4 h. The format is cell-based, human. On the procedure:
Nevertheless, when incubation was done in the presence of 1 mM ascorbate (vitamin C) plus quinones (including menadione), a new peptide fragment of about 70 kD was detected by the antibody against Hsp90.
Figure 1 Effects of selected quinones of Hsp90 (A) and poly(ADPribose)polymerase (PARP) (B) protein integrity in T24 cells. Cancer cells were incubated for 4 h with 5 µM menadione (K3), 15, 16, 19, or 20 either in the absence or in the presence of 1 mM ascorbate (Asc). Ctl represents control untreated cells. * p < 0.05 as compared to control conditions.
Cancer cells were incubated for 4 h in the absence and in the presence of compounds. Afterward, cells were washed twice with ice-cold PBS and then resuspended in RIPA lysis buffer supplemented with 1% protease inhibitor cocktail (Sigma–Aldrich, St. Louis, MO, USA) and 3% phosphatase inhibitor cocktail (Calbiochem, Darmstadt, Germany). Treatment of samples and electrophoresis conditions were conducted as previously reported. Mouse monoclonal primary antibodies against hsp90α/β C-terminus (F8), and against β-actin (clone AC-15), were purchased from Santa Cruz Biotechnology (Santa Cruz, CA, USA) and from Abcam (Cambridge, UK), respectively. Rabbit polyclonal antibodies against PARP were purchased from BD Biosciences (San Diego, CA, USA). […]

For assay [2], the system named is poly(ADPribose)polymerase (PARP). The assay can be described thus: Immunoblot of PARP protein integrity in T24 cells. The format is cell-based, human. Conditions: 5 µM, 4 h, regardless of the presence of ascorbate (1 mM). On the procedure:
Figure 1 Effects of selected quinones of Hsp90 (A) and poly(ADPribose)polymerase (PARP) (B) protein integrity in T24 cells. […] Ctl represents control untreated cells. * p < 0.05 as compared to control conditions. […] This was the case regardless of the presence of ascorbate (1 mM). The obtained results make a potential role of apoptosis unlikely to be the underlying mechanism of cell impairment induced by quinones, including menadione. Indeed, PARP is a substrate of caspase-3, therefore, when an apoptosis process is triggered, it is expected that PARP protein will be cleaved yielding a second protein band also recognized by the anti-PARP antibody. Cancer cells were incubated for 4 h in the absence and in the presence of compounds. Afterward, cells were washed twice with ice-cold PBS and then resuspended in RIPA lysis buffer supplemented with 1% protease inhibitor cocktail (Sigma–Aldrich, St. Louis, MO, USA) and 3% phosphatase inhibitor cocktail (Calbiochem, Darmstadt, Germany). Treatment of samples and electrophoresis conditions were conducted as previously reported. Mouse monoclonal primary antibodies against hsp90α/β C-terminus (F8), and against β-actin (clone AC-15), were purchased from Santa Cruz Biotechnology (Santa Cruz, CA, USA) and from Abcam (Cambridge, UK), respectively. Rabbit polyclonal antibodies against PARP were purchased from BD Biosciences (San Diego, CA, USA). […]
In general terms: In western blotting, separated proteins are transferred to a membrane and probed.

Another assay relates to PARP. The assay can be described thus: Immunoblot of PARP protein integrity in TLT cells. The format is cell-based, murine. The settings on record: 5 µM plus 1 mM ascorbate, 4 h. On the procedure: Cancer cells were incubated for 4 h with 5 µM menadione (K3) or 15 either in the absence or in the presence of 1 mM ascorbate (Asc). Ctl represents control untreated cells. * p < 0.05 as compared to control conditions. Cancer cells were incubated for 4 h in the absence and in the presence of compounds. Afterward, cells were washed twice with ice-cold PBS and then resuspended in RIPA lysis buffer supplemented with 1% protease inhibitor cocktail (Sigma–Aldrich, St. Louis, MO, USA) and 3% phosphatase inhibitor cocktail (Calbiochem, Darmstadt, Germany). Treatment of samples and electrophoresis conditions were conducted as previously reported. Mouse monoclonal primary antibodies against hsp90α/β C-terminus (F8), and against β-actin (clone AC-15), were purchased from Santa Cruz Biotechnology (Santa Cruz, CA, USA) and from Abcam (Cambridge, UK), respectively. Rabbit polyclonal antibodies against PARP were purchased from BD Biosciences (San Diego, CA, USA). Goat anti-rabbit antibody and rabbit anti-mouse polyclonal antibody were purchased respectively from Chemicon International (Temecula, CA, USA) and DakoCytomation (Glostrup, Denmark).

The next assay concerns T24 (bladder) cells. More on the design: method as in doi:10.1016/j.tetlet.2015.07.034. Conditions: MTT, data from Valderrama et al. ref 16, read-out: IC50 ± SEM T24; cited from earlier work.
Another assay relates to DU-145 (prostate) cells. Set-up: method as in doi:10.1016/j.tetlet.2015.07.034. Conditions: read-out: IC50 ± SEM DU-145, MTT, data from Valderrama et al. ref 16; cited from earlier work.

By IC50 is commonly meant the concentration that gives 50% inhibition. Turning to `Cc1ccc2c(c1)SC1=NC3=C(C(=O)c4ccccc4C3=O)C(C)(O)N12` (stereo not drawn) [Compound 15], the half-inhibitory concentration (IC50) in assay [1] is 32300 ± 3310 nM; in the assay on T24 (bladder) cells, 220 ± 60 nM; with DU-145 (prostate) cells it was 110 ± 30 nM. For the same molecule, in the assay on Hsp90, the Hsp90 protein cleavage result is “induced an oxidative cleavage of Hsp90”. In addition, the PARP cleavage result in assay [2] was “no effect on PARP protein integrity”. The PARP degradation entry in the assay on PARP was “not PARP degradation”.
